According to US20240018161A1, “MODULATORS OF CYSTIC FIBROSIS TRANSMEMBRANE CONDUCTANCE REGULATOR” (VERTEX PHARMACEUTICALS INCORPORATED, priority 2020, published 2024):
Where two headings read alike, the source gives them in different places.

Target: CFTR-mediated chloride transport in human intestinal epithelial enteroid cells (Homo sapiens, UniProt P13569)
Experiment: Membrane potential dye, Enteroid Assay A
Assay type: cell-based
Settings: for EC50: read-out: Ent. A EC50
Procedure, shortened: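 Membrane potential dye (20 μM methyl oxonol, with 30 μM CaCCinh-A01 and 30 μM Chicago Sky Blue) loaded 25 min at room temperature into ROCK-inhibitor-seeded human enteroid cells. Chloride-free stimulation buffer triggered transport, followed by 15 min fluorescence. % Activity relative to 3 μM/3 μM/300 nM triple-combination control.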

[1] = enteroid cells incubated with test compound 18-24 hours, acute 10 μM forskolin and 300 nM N-[2,4-bis(1,1-dimethylethyl)-5-hydroxyphenyl]-1,4-dihydro-4-oxoquinoline-3-carboxamide
[2] = percentage of chloride transport of triple combination control (3 μM N-[(6-amino-2-pyridyl)sulfonyl]-6-(3-fluoro-5-isobutoxy-phenyl)-2-[(4S)-2,2,4-trimethylpyrrolidin-1-yl]pyridine-3-carboxamide based)

Chain of CFTR-mediated chloride transport in human intestinal epithelial enteroid cells (P13569 with tags, fused parts or gaps DEL508-508): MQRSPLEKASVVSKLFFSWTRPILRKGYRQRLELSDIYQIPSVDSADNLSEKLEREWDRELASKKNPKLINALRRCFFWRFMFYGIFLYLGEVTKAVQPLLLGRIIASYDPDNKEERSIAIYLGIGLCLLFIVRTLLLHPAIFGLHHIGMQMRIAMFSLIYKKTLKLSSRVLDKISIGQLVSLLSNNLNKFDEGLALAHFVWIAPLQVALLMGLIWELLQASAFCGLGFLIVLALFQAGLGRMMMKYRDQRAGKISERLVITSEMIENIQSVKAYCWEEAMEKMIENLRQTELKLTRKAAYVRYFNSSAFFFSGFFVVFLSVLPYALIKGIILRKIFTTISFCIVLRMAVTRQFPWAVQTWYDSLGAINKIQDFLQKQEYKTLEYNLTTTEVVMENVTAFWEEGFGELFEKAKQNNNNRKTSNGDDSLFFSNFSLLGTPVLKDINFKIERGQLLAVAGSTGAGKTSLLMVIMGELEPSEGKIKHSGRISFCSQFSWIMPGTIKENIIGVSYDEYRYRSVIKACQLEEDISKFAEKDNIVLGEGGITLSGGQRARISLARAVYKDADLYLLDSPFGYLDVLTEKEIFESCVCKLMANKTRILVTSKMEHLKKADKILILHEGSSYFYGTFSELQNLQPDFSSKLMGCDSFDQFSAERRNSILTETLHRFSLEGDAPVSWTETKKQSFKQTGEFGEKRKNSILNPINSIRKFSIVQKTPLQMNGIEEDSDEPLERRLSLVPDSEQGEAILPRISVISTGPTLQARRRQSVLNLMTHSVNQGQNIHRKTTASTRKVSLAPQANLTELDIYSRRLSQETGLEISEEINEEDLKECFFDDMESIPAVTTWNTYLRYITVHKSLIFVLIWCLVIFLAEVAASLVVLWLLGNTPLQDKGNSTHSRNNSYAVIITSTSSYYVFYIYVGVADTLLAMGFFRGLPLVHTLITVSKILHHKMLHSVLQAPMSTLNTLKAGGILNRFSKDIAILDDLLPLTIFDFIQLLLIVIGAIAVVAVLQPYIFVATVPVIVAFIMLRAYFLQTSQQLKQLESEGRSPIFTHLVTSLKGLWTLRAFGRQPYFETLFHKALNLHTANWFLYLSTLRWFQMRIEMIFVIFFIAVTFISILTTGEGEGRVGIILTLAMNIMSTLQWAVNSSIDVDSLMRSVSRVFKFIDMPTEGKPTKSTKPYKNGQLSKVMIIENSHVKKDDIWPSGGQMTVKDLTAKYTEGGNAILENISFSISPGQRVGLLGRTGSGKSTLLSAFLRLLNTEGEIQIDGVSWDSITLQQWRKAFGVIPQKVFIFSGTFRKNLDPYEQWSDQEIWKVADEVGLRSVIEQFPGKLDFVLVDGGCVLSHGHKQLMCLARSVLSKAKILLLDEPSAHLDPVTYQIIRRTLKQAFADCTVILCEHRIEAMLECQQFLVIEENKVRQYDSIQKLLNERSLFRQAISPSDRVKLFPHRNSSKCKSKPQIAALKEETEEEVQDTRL

SMILES	Ent. A Max Activity (%) (Enteroid Assay A)	EC50 (Enteroid Assay A) [nM]	Ent. A Max Activity (%)	EC50 [1] [nM]	Ent. A Max Activity (%) [2]
Cc1cccc(C)c1-c1cc2nc(n1)NS(=O)(=O)c1cccc(c1)C(=O)N1C[C@@H](CNC[C@@H]1CC(C)(C)C)O2 [Compound 135, (16R,20S)-12-(2,6-Dimethylphenyl)-20-(2,2-dimethylpropyl)-15-oxa-8λ^6-thia-1,9,11,18,22-pentaazatetracyclo[14.4.1.13,7.110,14]tricosa-3(23),4,6,10(22),11,13-hexaene-2,8,8-trione]	++ (++ is 30-60%)	< 1000			
Cc1cccc(C)c1-c1cc2nc(n1)NS(=O)(=O)c1cccc(c1)C(=O)N1C[C@@H](CN(CCC(C)(C)C)C[C@H]1CC(C)C)O2 [Compound 143]	+++ (+++ is >600%)	< 1000			
Cc1cccc(C)c1-c1cc2nc(n1)NS(=O)(=O)c1cccc(c1)CN1C[C@@H](CN(CCC(C)(C)C)CC1=O)O2 [Compound 145]	++ (++ is 30-60%)	< 1000			
Cc1cccc(C)c1-c1cc2nc(n1)NS(=O)(=O)c1cccc(c1)C(=O)N1C[C@@H](CN(CC(C)(C)C)C[C@@H]1CC(C)C)O2 [Compound 151]	++ (++ is 30-60%)	< 1000			
Cc1cccc(C)c1-c1cc2nc(n1)NS(=O)(=O)c1cccc(c1)C(=O)N1C[C@@H](CN(CCC(C)(C)C)C[C@@H]1CC(C)C)O2 [Compound 153]	++ (++ is 30-60%)	< 1000			
Cc1cccc(C)c1-c1cc2nc(n1)NS(=O)(=O)c1cccc(c1)C(=O)N1C[C@@H](CN(CC(C)(C)C)[C@@H](CC(C)C)C1)O2 [Compound 154]	+++ (+++ is >600%)	< 1000			
Cc1cccc(C)c1-c1cc2nc(n1)NS(=O)(=O)c1cccc(c1)C(=O)N1C[C@@H](CN(CCC(C)(C)C)[C@@H](CC(C)C)C1)O2 [Compound 155]	+++ (+++ is >600%)	< 1000			
Cc1cccc(C)c1-c1cc2nc(n1)NS(=O)(=O)c1cccc(c1)C(=O)N1CCN(CCC(C)(C)C)C[C@H](O2)[C@H]1CC(C)C [Compound 157]	+++ (+++ is >600%)	< 1000			
Cc1cccc(C)c1-c1cc2nc(n1)NS(=O)(=O)c1cccc(c1)C(=O)N1CCN(C3CCC(F)(F)CC3)C[C@@H](O2)[C@H]1CC(C)C [Compound 158]			+++ (key: +++ is >600%; ++ is 30-60%; + is <30%)		
Cc1cccc(C)c1-c1cc2nc(n1)NS(=O)(=O)c1cccc(c1)C(=O)N1CCN(CCC(C)(C)C)C[C@@H](O2)[C@H]1CC(C)C [Compound 159]	+++ (+++ is >600%)	< 1000			
Cc1cccc(C)c1-c1cc2nc(n1)NS(=O)(=O)c1cccc(c1)C(=O)N1CCNC[C@@H]1CO2 [Compound 161, (8R)-13-(2,6-Dimethylphenyl)-10-oxa-17λ^6-thia-3,6,14,16,23-pentaazatetracyclo[16.3.1.111,15.03,8]tricosa-1(21),11,13,15(23),18(22),19-hexaene-2,17,17-trione]				3000 to 30000	++ (++ is 30-60%)
Cc1cccc(C)c1-c1cc2nc(n1)NS(=O)(=O)c1cccc(c1)C(=O)N1CCN(C)C[C@@H]1CO2 [Compound 162, (8R)-13-(2,6-Dimethylphenyl)-6-methyl-10-oxa-17λ^6-thia-3,6,14,16,23-pentaazatetracyclo[16.3.1.111,15.03,8]tricosa-1(21),11,13,15(23),18(22),19-hexaene-2,17,17-trione]				3000 to 30000	++ (++ is 30-60%)
Cc1cccc(C)c1-c1cc2nc(n1)NS(=O)(=O)c1cccc(c1)C(=O)N1CCN(CCC3(C(F)(F)F)CC3)C[C@@H]1CO2 [Compound 163, (8R)-13-(2,6-Dimethylphenyl)-6-{2-[1-(trifluoromethyl)cyclopropyl]ethyl}-10-oxa-17λ^6-thia-3,6,14,16,23-pentaazatetracyclo[16.3.1.111,15.03,8]tricosa-1(22),11(23),12,14,18,20-hexaene-2,17,17-trione]				< 1000	+++ (+++ is >60%)

More lines, main results first:

Ent. A Max Activity (%) (Enteroid Assay A)	EC50 (Enteroid Assay A) [nM]	SMILES	Ent. A Max Activity (%)	EC50 [1] [nM]	Ent. A Max Activity (%) [2]
++ (++ is 30-60%)	< 1000	Cc1cccc(C)c1-c1cc2nc(n1)NS(=O)(=O)c1cccc(c1)C(=O)N1C[C@@H](CN(C3CC4(CCCC4)C3)C[C@H]1C(C)C)O2 [Compound 127, (16R,20R)-12-(2,6-dimethylphenyl)-20-(propan-2-yl)-18-{spiro[3.4]octan-2-yl}-15-oxa-8λ^6-thia-1,9,11,18,22-pentaazatetracyclo[14.4.1.13,7.110,14]tricosa-3(23),4,6,10(22),11,13-hexaene-2,8,8-trione]			
++ (++ is 30-60%)	< 1000	Cc1cccc(C)c1-c1cc2nc(n1)NS(=O)(=O)c1cccc(c1)C(=O)N1C[C@@H](CN(C3CC4(CCCCC4)C3)C[C@H]1C(C)C)O2 [Compound 128, (16R,20R)-12-(2,6-dimethylphenyl)-20-(propan-2-yl)-18-{spiro[3.5]nonan-2-yl}-15-oxa-8λ^6-thia-1,9,11,18,22-pentaazatetracyclo[14.4.1.13,7.110,14]tricosa-3(23),4,6,10(22),11,13-hexaene-2,8,8-trione]			
+++ (+++ is >600%)	< 1000	Cc1cccc(C)c1-c1cc2nc(n1)NS(=O)(=O)c1cccc(c1)C(=O)N1C[C@@H](CNC[C@@H]1CCC(C)C)O2 [Compound 130, (16R,20S)-12-(2,6-Dimethylphenyl)-20-(3-methylbutyl)-15-oxa-8λ^6-thia-1,9,11,18,22-pentaazatetracyclo[14.4.1.13,7.110,14]tricosa-3(23),4,6,10(22),11,13-hexaene-2,8,8-trione]			
++ (++ is 30-60%)	< 1000	Cc1cccc(C)c1-c1cc2nc(n1)NS(=O)(=O)c1cccc(c1)C(=O)N1C[C@@H](CN(C)C[C@@H]1CCC(C)C)O2 [Compound 131, (16R,20S)-12-(2,6-Dimethylphenyl)-18-methyl-20-(3-methylbutyl)-15-oxa-8λ^6-thia-1,9,11,18,22-pentaazatetracyclo[14.4.1.13,7.110,14]tricosa-3(23),4,6,10(22),11,13-hexaene-2,8,8-trione]			
+++ (+++ is >600%)	< 1000	Cc1cccc(C)c1-c1cc2nc(n1)NS(=O)(=O)c1cccc(c1)C(=O)N1C[C@@H](CNC[C@@H]1C(C)C)O2 [Compound 133, (16R,20S)-12-(2,6-Dimethylphenyl)-20-(propan-2-yl)-15-oxa-8λ^6-thia-1,9,11,18,22-pentaazatetracyclo[14.4.1.13,7.110,14]tricosa-3(23),4,6,10(22),11,13-hexaene-2,8,8-trione]			
+++ (+++ is >600%)	< 1000	Cc1cccc(C)c1-c1cc2nc(n1)NS(=O)(=O)c1cccc(c1)C(=O)N1C[C@@H](CN(C)C[C@@H]1CC(C)(C)C)O2 [Compound 136, (16R,20S)-12-(2,6-Dimethylphenyl)-20-(2,2-dimethylpropyl)-18-methyl-15-oxa-8λ^6-thia-1,9,11,18,22-pentaazatetracyclo[14.4.1.13,7.110,14]tricosa-3(23),4,6,10(22),11,13-hexaene-2,8,8-trione]			
++ (++ is 30-60%)	< 1000	Cc1cccc(C)c1-c1cc2nc(n1)NS(=O)(=O)c1cccc(c1)C(=O)N1C[C@@H](CN(C3CCCC3)C[C@H]1CC(C)C)O2 [Compound 138]			
+++ (+++ is >600%)	< 1000	Cc1cccc(C)c1-c1cc2nc(n1)NS(=O)(=O)c1cccc(c1)C(=O)N1C[C@@H](CN(C(C)C)C[C@H]1CC(C)C)O2 [Compound 139]			
+++ (+++ is >600%)	< 1000	Cc1cccc(C)c1-c1cc2nc(n1)NS(=O)(=O)c1cccc(c1)C(=O)N1C[C@@H](CN(C3CC4(CCCCC4)C3)C[C@H]1CC(C)C)O2 [Compound 140]			
+++ (+++ is >600%)	< 1000	Cc1cccc(C)c1-c1cc2nc(n1)NS(=O)(=O)c1cccc(c1)C(=O)N1C[C@@H](CN(C3CC4(CCCC4)C3)C[C@H]1CC(C)C)O2 [Compound 141]			
+++ (+++ is >600%)	< 1000	Cc1cccc(C)c1-c1cc2nc(n1)NS(=O)(=O)c1cccc(c1)C(=O)N1C[C@@H](CN(C3CCC(F)(F)CC3)C[C@H]1CC(C)C)O2 [Compound 142]			
+++ (+++ is >600%)	< 1000	Cc1cccc(C)c1-c1cc2nc(n1)NS(=O)(=O)c1cccc(c1)C(=O)N1C[C@@H](CN(C3CCC(F)(F)CC3)C[C@@H]1C(C)C)O2 [Compound 146]			
+++ (+++ is >600%)	< 1000	Cc1cccc(C)c1-c1cc2nc(n1)NS(=O)(=O)c1cccc(c1)C(=O)N1C[C@@H](CN(C3CC4(CCCC4)C3)C[C@@H]1C(C)C)O2 [Compound 147]			
+++ (+++ is >600%)	< 1000	Cc1cccc(C)c1-c1cc2nc(n1)NS(=O)(=O)c1cccc(c1)C(=O)N1C[C@@H](CN(C3CC4(CCCCC4)C3)C[C@@H]1C(C)C)O2 [Compound 148]			
+++ (+++ is >600%)	< 1000	Cc1cccc(C)c1-c1cc2nc(n1)NS(=O)(=O)c1cccc(c1)C(=O)N1C[C@@H](CN(C)C[C@@H]1C(C)C)O2 [Compound 149]			
++ (++ is 30-60%)	< 1000	Cc1cccc(C)c1-c1cc2nc(n1)NS(=O)(=O)c1cccc(c1)C(=O)N1C[C@@H](CN(C3CC4(CCCCC4)C3)C[C@@H]1CC(C)C)O2 [Compound 150]			
++ (++ is 30-60%)	< 1000	Cc1cccc(C)c1-c1cc2nc(n1)NS(=O)(=O)c1cccc(c1)C(=O)N1C[C@@H](CN(C3CCC(F)(F)CC3)C[C@@H]1CC(C)C)O2 [Compound 152]			
+++ (+++ is >600%)	< 1000	Cc1cccc(C)c1-c1cc2nc(n1)NS(=O)(=O)c1cccc(c1)C(=O)N1C[C@@H](CN(C3CC4(CCCC4)C3)[C@@H](CC(C)C)C1)O2 [Compound 156]			
